# Data: US11752125B2, “Anti-neuroinflammatory and protective compounds in Achillea fragrantissima” (THE STATE OF ISRAEL MINISTRY OF AGRICULTURE & RURAL …, priority 2013, dated 2023)
# Experiments:
# astrocytes = experiment: Cytotoxicity of the compound by itself to astrocytes (LDH); type: cell-based; conditions: all concentrations tested, 20 h
# Protocol: Astrocytes were re-plated at 24-well poly-D-lysine-coated plastic plates at a density of 1×10^5/well, in DMEM w/o Phenol Red containing 2% FBS, 2 mM glutamine, 100 U/mL penicillin, and 100 μg/mL streptomycin. H2O2 in the presence or absence of TTF were added, and cell viability was determined using a commercial colorimetric assay (Roche Applied Science, Germany) according to the manufacturer's instructions. This assay is based on the measurement of lactate dehydrogenase (LDH) activity released from the cytosol of damaged cells into the incubation medium. The absorbance was measured at 492 nm in a plate reader. The percentage of cytotoxicity was calculated according to the following equation, where the “ATriton-x treated cells” is the maximum releasable LDH in the cells:
# Astrocytes were treated with different concentrations of TTF and cell death was determined 20 h later by the LDH method. The results are means±SEM of two experiments (n=10) and are shown in FIG. 2C. ***P<0.001, compared to untreated cells.
# N2a neuronal cells = experiment: SNP-induced ROS elevation in N2a cells; type: cell-based; conditions: TTF 2 μM; SNP 250 μM; 20 h
# Protocol: N2a neuronal cells were pre-loaded with DCF-DA for 30 min and washed. TTF (2 μM) was added to cells before (−2 h, −1 h), concomitant with (0) or after (1 h, 2 h) the addition of SNP (250 μM). ROS levels in neuronal cells were measured 20 h after the application of SNP. The results are shown in FIG. 18 and are the mean±SEM of two different experiments (n=15).
# COX-2 = COX-2 transcripts in LPS-stimulated microglial cells (real-time PCR); type: cell-based, rat; conditions: 20 μg/mL; LPS 4.5 ng/mL, 5 h
# Protocol: (§1) RNA was extracted by the RNeasy Plus Mini Kit (Qiagen, Hilden, Germany) according to the manufacturer's instructions. Genomic DNA was removed from the RNA samples by using 50 units of RNase-free DNaseI at 37° C. for 1 h. RNA ([…]) was converted to cDNA using the Thermo Scientific Verso cDNA kit (Thermo Fisher Scientific Inc) following the manufacturer's protocol. The cDNA was used for quantitative real-time PCR amplification with TaqMan chemistry (Applied Biosystems) using Rat MMP9, TNFα, IL1β, iNOS, COX2 pre-designed TaqMan Gene Expression Assay from Applied Biosystems (Rn00579162_m1, Rn00562055_m1, Rn00580432_m1, Rn00561646_m1, Rn01483828_m1, respectively). […] All results from three technical replicates were normalized relative to α-Tubulin (Rn01532518.g1) and GAPDH (Rn01775763.g1), respectively, and expressed as relative expression ratios calculated (relative quantity, RQ) using the comparative method and based on the data that were created by the ABI PRISM 7700 Sequence Detection System (using version 1.6 software).
# (§2) Procedure 23. Measurement of IL-1Beta, TNFalpha, iNOS, COX-2 and MMP-9 Transcripts in LPS-Activated Microglial Cells by Quantitative Real-Time PCR Analysis. • 1. […]
# (§3) Microglial cells were treated with 20 μg/mL of achillolide A, followed by stimulation with LPS (4.5 ng/mL). […] The results are expressed as percentages relative to LPS-stimulated cells. […]
# IL-1β = IL-1β transcripts in LPS-stimulated microglial cells (real-time PCR); type: cell-based, rat; conditions: 20 μg/mL; LPS 4.5 ng/mL, 5 h
# Protocol: as §1, §2, §3
# primary astrocytes = conditions: Nones et al., 2012; cited from earlier work
smiles,measurement,setting,value
"COc1cc(-c2oc3cc(OC)c(OC)c(O)c3c(=O)c2O)ccc1O [TTF, 3,5,4′-trihydroxy-6,7,3′-trimethoxyflavone]",cytotoxicity of the flavonoid by itself to astrocytes,astrocytes,< 11%
same,effect on SNP-induced ROS elevation,N2a neuronal cells,attenuates the elevation in ROS levels
C=C1CCC2=C(CO)C(=O)O[C@H]2/C=C(\C)[C@H](OC(C)=O)CC1=O [achillolide A],effect on LPS-induced COX-2 transcript levels,COX-2,significantly inhibited
same,effect on LPS-induced IL-1β transcript levels,IL-1β,significantly inhibited
"O=c1c(O)c(-c2ccc(O)c(O)c2)oc2cc(O)cc(O)c12 [quercetin, 3,3′,4′,5,7-Pentahydroxyflavone, reference compound]",nontoxic concentration in primary astrocytes,primary astrocytes,up to 100 μM
